Test results as given in patent US11584747B2, “Substituted pyridopyrimidinonyl compounds useful as T cell activators” (BRISTOL-MYERS SQUIBB COMPANY, priority 2019, dated 2023).
Read-outs that look alike come from different tables or passages of the source.

Columns and labels:
human DGKζ = human DGKζ (Homo sapiens (Human), UniProt Q13574); assay: DGKζ LIPGLO assay (extruded liposome substrate, ADP-Glo luminescence); format: biochemical
human DGKα [1] = target: T1, human DGKα (Homo sapiens (Human), UniProt P23743); assay: DGKα LIPGLO assay (extruded liposome substrate, ADP-Glo luminescence); format: biochemical; conditions: liposome assay; read-out: DGK alpha LIPGLO IC50
T1 sequence (P23743 whole entry, looked up): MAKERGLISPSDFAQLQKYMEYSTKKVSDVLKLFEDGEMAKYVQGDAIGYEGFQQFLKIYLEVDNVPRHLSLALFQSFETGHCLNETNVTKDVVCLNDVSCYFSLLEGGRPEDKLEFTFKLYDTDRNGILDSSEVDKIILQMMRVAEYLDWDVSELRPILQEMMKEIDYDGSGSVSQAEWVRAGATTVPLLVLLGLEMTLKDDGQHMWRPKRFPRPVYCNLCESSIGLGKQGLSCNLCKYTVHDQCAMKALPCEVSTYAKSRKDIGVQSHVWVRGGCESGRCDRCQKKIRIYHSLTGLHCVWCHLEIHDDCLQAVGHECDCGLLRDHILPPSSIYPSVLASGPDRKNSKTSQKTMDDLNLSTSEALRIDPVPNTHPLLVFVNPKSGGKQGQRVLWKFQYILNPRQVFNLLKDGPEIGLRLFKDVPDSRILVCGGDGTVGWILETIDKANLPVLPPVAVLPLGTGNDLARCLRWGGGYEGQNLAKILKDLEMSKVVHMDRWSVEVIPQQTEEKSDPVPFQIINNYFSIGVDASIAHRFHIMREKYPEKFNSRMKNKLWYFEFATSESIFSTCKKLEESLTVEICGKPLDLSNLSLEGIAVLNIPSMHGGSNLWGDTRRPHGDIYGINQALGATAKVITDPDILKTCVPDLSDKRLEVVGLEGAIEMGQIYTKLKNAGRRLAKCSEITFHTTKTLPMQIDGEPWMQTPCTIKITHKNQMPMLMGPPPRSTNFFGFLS

[2] = tested on: human venous whole blood (IFN-γ); assay: Human whole blood IFN-γ assay; format: cell-based
Procedure: Human venous whole blood (22.5 μL per well), obtained from healthy donors, was pre-treated with compounds for one hour at 37° C. in a humidified 95% air/5% CO2 incubator. The blood was stimulated with 2.5 μL anti-human CD3 and anti-CD28 mAb at a final concentration of 1 μg/mL each for 24 hours at 37° C. IFN-γ in the supernatants was measured using AlphLISA kit (Cat #AL217).

human DGKα [3] = target: T1, human DGKα; assay: DGKα ADPGLO assay (detergent/lipid micelle substrate); format: biochemical
Procedure: DGK Alpha ADPGLO (Truncated) IC50 (uM)
The detergent/lipid micelle was prepared by combining 15 g phosphatidylserine (Avanti 840035P) and 1 g diacylglycerol (8008110) and dissolving into 150 mL chloroform in a 2 L round bottom flask. Chloroform was removed under high vacuum by rotary evaporation. […] The lipid/detergent solution was split into 5 mL aliquots and stored at −80° C.

[4] = liposome assay, read-out: DGK zeta LIPGLO IC50
[5] = liposome (LIPGLO) assay, read-out: DGK zeta (liposome assay) IC50
[6] = human whole blood, anti-CD3 plus anti-CD28 stimulation, 24 hours, read-out: IFN-γ Whole Blood EC50
[7] = ADPGLO assay, read-out: DGK alpha ADPGLO IC50
[8] = Homo sapiens, whole blood, normalized to 3 μM reference compound as 100% activation, read-out: IFN-γ Whole Blood Normalized EC50
[9] = truncated DGK alpha, read-out: DGK alpha ADPGLO (Truncated) IC50
[10] = whole blood, normalized to 3 μM reference compound as 100% activation, read-out: IFN-γ Whole Blood Normalized EC50

Chain of human DGKζ (Q13574 other isoform, or with tags, fused parts or gaps): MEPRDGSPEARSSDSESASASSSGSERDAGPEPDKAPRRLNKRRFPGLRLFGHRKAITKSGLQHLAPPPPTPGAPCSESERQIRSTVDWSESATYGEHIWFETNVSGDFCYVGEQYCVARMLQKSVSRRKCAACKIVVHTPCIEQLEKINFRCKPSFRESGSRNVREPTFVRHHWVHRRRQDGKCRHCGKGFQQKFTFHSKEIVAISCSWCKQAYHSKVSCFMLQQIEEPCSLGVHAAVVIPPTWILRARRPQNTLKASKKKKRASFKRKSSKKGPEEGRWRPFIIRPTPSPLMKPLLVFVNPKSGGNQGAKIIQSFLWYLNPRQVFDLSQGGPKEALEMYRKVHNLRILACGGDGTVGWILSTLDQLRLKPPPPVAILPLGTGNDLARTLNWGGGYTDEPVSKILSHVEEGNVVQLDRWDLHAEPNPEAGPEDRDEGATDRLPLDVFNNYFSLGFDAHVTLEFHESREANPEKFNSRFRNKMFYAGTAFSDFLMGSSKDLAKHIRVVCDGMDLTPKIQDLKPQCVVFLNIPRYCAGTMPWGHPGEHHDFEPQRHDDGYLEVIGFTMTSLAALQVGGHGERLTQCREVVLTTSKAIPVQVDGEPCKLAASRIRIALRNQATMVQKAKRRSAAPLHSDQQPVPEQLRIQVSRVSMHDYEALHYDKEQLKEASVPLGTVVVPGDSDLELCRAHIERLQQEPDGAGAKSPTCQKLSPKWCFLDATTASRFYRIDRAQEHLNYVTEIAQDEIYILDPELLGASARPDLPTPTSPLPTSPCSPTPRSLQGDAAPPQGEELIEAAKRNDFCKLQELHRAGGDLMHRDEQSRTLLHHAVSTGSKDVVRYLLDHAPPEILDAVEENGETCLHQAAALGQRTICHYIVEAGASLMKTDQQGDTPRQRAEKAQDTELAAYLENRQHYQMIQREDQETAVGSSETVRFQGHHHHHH

Structure (SMILES)	IC50 (human DGKζ; [4])	IC50 (human DGKα [1])	other results
CC(c1ccc(OC(F)F)cc1)N1C[C@H](C)N(c2nc(=O)n(C)c3ccc(C#N)nc23)C[C@H]1C (single isomer, unassigned) [Example 156]	120 nM	10 nM	–
CC[C@H]1CN(C(C)c2ccc(OC(F)(F)F)cc2)[C@H](C)CN1c1nc(=O)n(C)c2ccc(C#N)nc12 (stereo partly drawn) [Example 122, 4-((2S,5R)-2-ethyl-5-methyl-4-(1-(4-(trifluoromethoxy)phenyl)ethyl)piperazin-1-yl)-1-methyl-2-oxo-1,2-dihydropyrido[3,2-d]pyrimidine-6-carbonitrile]	1960 nM	32 nM	–
CC[C@H]1CN(C(C)c2ccc(OC(F)(F)F)cc2)[C@H](CC)CN1c1nc(=O)n(C)c2ccc(C#N)nc12 (single isomer, unassigned) [Example 9]	48 nM	7 nM	–
CC[C@H]1CN(C(C)c2ccc(OC(C)C)cc2)[C@H](CC)CN1c1nc(=O)n(C)c2ccc(C#N)nc12 (single isomer, unassigned) [Example 18]	25 nM	30 nM	–
CC[C@@H]1CN(c2nc(=O)n(C)c3ccc(C#N)nc23)[C@@H](C)CN1C(c1ccc(F)cc1)c1nc(C2CC2)cs1 (single isomer, unassigned) [Example 50]	37 nM	110 nM	–
CC(c1ccc(F)cc1)N1C[C@H](C)N(c2nc(=O)n(C)c3ccc(C#N)nc23)C[C@H]1C (single isomer, unassigned) [Example 128]	110 nM	26 nM	–
CC[C@H]1CN(C(C)c2ccc(C(F)(F)F)cc2F)[C@H](C)CN1c1nc(=O)n(C)c2ccc(C#N)nc12 (stereo partly drawn) [Example 118, 4-((2S,5R)-2-ethyl-4-(1-(2-fluoro-4-(trifluoromethyl)phenyl)ethyl)-5-methylpiperazin-1-yl)-1-methyl-2-oxo-1,2-dihydropyrido[3,2-d]pyrimidine-6-carbonitrile]	16 nM	95 nM	–
CC[C@H]1CN(C(c2ccc(F)cc2)c2cccc(C(F)(F)F)n2)[C@H](C)CN1c1nc(=O)n(C)c2ccc(C#N)nc12 (stereo partly drawn) [Example 121, 4-((2S,5R)-2-ethyl-4-((4-fluorophenyl)(6-(trifluoromethyl)pyridin-2-yl)methyl)-5-methylpiperazin-1-yl)-1-methyl-2-oxo-1,2-dihydropyrido[3,2-d]pyrimidine-6-carbonitrile]	1650 nM	1940 nM	–
CCC(c1ccc(OC(F)F)cc1)N1C[C@H](C)N(c2nc(=O)n(C)c3ccc(C#N)nc23)C[C@H]1CC (single isomer, unassigned) [Example 77]	14 nM	36 nM	–
CCC(c1ccc(C(F)(F)F)cc1)N1C[C@H](CC)N(c2nc(=O)n(C)c3ccc(OC)nc23)C[C@H]1CC (stereo partly drawn) [Example 436, 4-((2S,5R)-2,5-diethyl-4-(1-(4-(trifluoromethyl)phenyl)propyl)piperazin-1-yl)-6-methoxy-1-methylpyrido[3,2-d]pyrimidin-2(1H)-one]	–	–	IC50 (human DGKζ; [5]): 250000 nM; EC50 [2, 6]: 20000 nM; IC50 (human DGKα [3]; [7]): 12200 nM
CC(c1ccc(CN2CCOC(C)(C)C2)cc1)N1C[C@H](C)N(c2nc(=O)n(C)c3ccc(C#N)nc23)C[C@H]1C (single isomer, unassigned) [Example 386]	–	–	IC50 (human DGKζ; [5]): 5070 nM; EC50 [2, 6]: 2490 nM; IC50 (human DGKα [3]; [7]): 2700 nM
CC[C@H]1CN(C(C)c2nc(C3CC3)no2)[C@H](CC)CN1c1nc(=O)n(C)c2ccc(C#N)nc12 (stereo partly drawn) [Example 361, 4-((2S,5R)-4-(1-(3-cyclopropyl-1,2,4-oxadiazol-5-yl)ethyl)-2,5-diethylpiperazin-1-yl)-1-methyl-2-oxo-1,2-dihydropyrido[3,2-d]pyrimidine-6-carbonitrile]	–	–	IC50 (human DGKζ; [5]): 22 nM; EC50 [2, 6]: 260 nM; IC50 (human DGKα [3]; [7]): 5 nM
CCC(c1ccc(C)cc1)N1C[C@H](CC)N(c2nc(=O)n(C)c3ccc(C#N)nc23)C[C@H]1CC (stereo partly drawn) [Example 237, 4-((2S,5R)-2,5-diethyl-4-(1-(p-tolyl)propyl)piperazin-1-yl)-1-methyl-2-oxo-1,2-dihydropyrido[3,2-d]pyrimidine-6-carbonitrile]	3960 nM	–	EC50 [2, 10]: 1430 nM; IC50 (human DGKα [3]; [9]): 53 nM
CC[C@H]1CN(C(c2ccc(F)cc2)c2csc(C(F)(F)F)n2)[C@H](CC)CN1c1nc(=O)n(C)c2ccc(C#N)nc12 (stereo partly drawn) [Example 211, 4-((2S,5R)-2,5-diethyl-4((4-fluorophenyl)(2-(trifluoromethyl)thiazol-4-yl)methyl)piperazin-1-yl)-1-methyl-2-oxo-1,2-dihydropyrido[3,2-d]pyrimidine-6-carbonitrile]	100 nM	–	EC50 [2, 10]: 18 nM; IC50 (human DGKα [3]; [9]): 46 nM

Now from value to compound, other results behind:

IC50 (human DGKζ; [4])	IC50 (human DGKα [1])	Structure (SMILES)	other results
970 nM	370 nM	CC[C@H]1CN(C(C)c2ccc(OC(F)(F)F)cc2)[C@H](CC)CN1c1nc(=O)n(C)c2ccc(C#N)nc12 (single isomer, unassigned) [Example 10]	–
750 nM	250 nM	CCC(c1ccc(OC(F)(F)F)cc1)N1C[C@H](C)N(c2nc(=O)n(C)c3ccc(C#N)nc23)C[C@H]1C (single isomer, unassigned) [Example 155]	–
1180 nM	2160 nM	CCC(c1ccc2c(c1)OC(F)(F)O2)N1C[C@H](C)N(c2nc(=O)n(C)c3ccc(C#N)nc23)C[C@H]1CC (single isomer, unassigned) [Example 80]	–
730 nM	650 nM	CC[C@H]1CN(C(C)c2ccc(C(F)(F)F)cc2F)[C@H](C)CN1c1nc(=O)n(C)c2ccc(C#N)nc12 (stereo partly drawn) [Example 119, 4-((2S,5R)-2-ethyl-4-(1-(2-fluoro-4-(trifluoromethyl)phenyl)ethyl)-5-methylpiperazin-1-yl)-1-methyl-2-oxo-1,2-dihydropyrido[3,2-d]pyrimidine-6-carbonitrile]	–
–	2410 nM	CC(c1cc(F)c(F)c(F)c1)N1C[C@H](C)N(c2nc(=O)n(C)c3ccc(C#N)nc23)C[C@H]1C (single isomer, unassigned) [Example 138]	–
5070 nM	125000 nM	CC[C@H]1CN(C(C)c2ccc(C(F)(F)F)cc2N2CCOCC2)[C@H](CC)CN1c1nc(=O)n(C)c2ccc(C#N)nc12 (stereo partly drawn) [Example 195, 4-((2S,5R)-2,5-diethyl-4-(1-(2-morpholino-4-(trifluoromethyl)phenyl)ethyl)piperazin-1-yl)-1-methyl-2-oxo-1,2-dihydropyrido[3,2-d]pyrimidine-6-carbonitrile]	–
740 nM	1710 nM	CC[C@H]1CN(C(c2ccc(F)cc2)c2cccc(C(F)(F)F)n2)[C@H](C)CN1c1nc(=O)n(C)c2ccc(C#N)nc12 (stereo partly drawn) [Example 120, 4-((2S,5R)-2-ethyl-4-((4-fluorophenyl)(6-(trifluoromethyl)pyridin-2-yl)methyl)-5-methylpiperazin-1-yl)-1-methyl-2-oxo-1,2-dihydropyrido[3,2-d]pyrimidine-6-carbonitrile]	–
33 nM	210 nM	CC[C@@H]1CN(c2nc(=O)n(C)c3ccc(C#N)nc23)[C@@H](C)CN1C(C)c1ccc(OCC2CC2)cc1 (single isomer, unassigned) [Example 67]	–
60 nM	5 nM	CCC(c1ccc(OC(F)(F)F)cc1F)N1C[C@H](CC)N(c2nc(=O)n(C)c3ccc(C#N)nc23)C[C@H]1CC (stereo partly shown) [Example 11]	–
37 nM	45 nM	CC[C@H]1CN(C(C)c2ccc(OC)cc2)[C@H](CC)CN1c1nc(=O)n(C)c2ccc(C#N)nc12 (single isomer, unassigned) [Example 16]	–
140 nM	–	CC[C@@H]1CN(c2nc(=O)n(C)c3ccc(C#N)nc23)[C@@H](C)CN1C(c1ccc(F)cc1)c1csc(C(F)(F)F)n1 (stereo partly drawn) [Example 296, 4-((2S,5R)-5-ethyl-4-((4-fluorophenyl)(2-(trifluoromethyl)thiazol-4-yl)methyl)-2-methylpiperazin-1-yl)-1-methyl-2-oxo-1,2-dihydropyrido[3,2-d]pyrimidine-6-carbonitrile]	EC50 [2, 8]: 36 nM; IC50 (human DGKα [3]; [9]): 460 nM
2080 nM	–	CCC(c1ccc(OC(F)F)cc1)N1C[C@H](CC)N(c2nc(=O)n(C)c3ccc(C#N)nc23)C[C@H]1CC (stereo partly drawn) [Example 223, 4-((2S,5R)-4-(1-(4-(difluoromethoxy)phenyl)propyl)-2,5-diethylpiperazin-1-yl)-1-methyl-2-oxo-1,2-dihydropyrido[3,2-d]pyrimidine-6-carbonitrile]	EC50 [2, 8]: 900 nM; IC50 (human DGKα [3]; [9]): 130 nM
370 nM	–	CC[C@H]1CN(C(C)c2ccc(C(=O)OC)cc2)[C@H](CC)CN1c1nc(=O)n(C)c2ccc(C#N)nc12 (stereo partly drawn) [Example 265, methyl 4-(1-((2R,5S)-4-(6-cyano-1-methyl-2-oxo-1,2-dihydropyrido[3,2-d]pyrimidin-4-yl)-2,5-diethylpiperazin-1-yl)ethyl)benzoate]	EC50 [2, 10]: 1590 nM; IC50 (human DGKα [3]; [9]): 790 nM
46 nM	–	CCC(c1ccc(C#N)cc1)N1C[C@H](CC)N(c2nc(=O)n(C)c3ccc(C#N)nc23)C[C@H]1CC (stereo partly drawn) [Example 220, 4-((2S,5R)-4-(1-(4-cyanophenyl)propyl)-2,5-diethylpiperazin-1-yl)-1-methyl-2-oxo-1,2-dihydropyrido[3,2-d] pyrimidine-6-carbonitrile]	EC50 [2, 10]: 81 nM; IC50 (human DGKα [3]; [9]): 110 nM
